{"source": "paper PMC8691750", "about": "“Euphorbia Factor L2 ameliorates the Progression of K/BxN Serum-Induced Arthritis by Blocking TLR7 Mediated IRAK4/IKKβ/IRF5 and NF-kB Signaling Pathways” (Frontiers in Pharmacology, 2021)", "system": "TLR signalling pathway genes", "test": "Toll-like Receptor Pathway PCR array of ankles", "assay_type": "in vivo, C57BL/6 mice", "settings": "for S40/SIA (fold change) / log2(fold change) S40/SIA: S40 group vs SIA group", "experimental": "Total RNA was isolated from the right ankles using the TRIzol Reagent (Invitrogen) and purified with RNeasy Mini Kit and RNase-Free DNase Set (Qiagen). RNA quality was determined using a spectrophotometer and was reversely transcribed using Wcgene® mRNA cDNA kit. The complementary DNA was used on the Toll-like Receptor Pathway PCR Array plate (Wcgene® biotech, China).", "note": "Where “and” joins values, the source holds several entries; their conditions need not be identical. Equal entries are not always repeated."}
{"smiles": "C=C1C(OC(=O)c2ccccc2)CC2C(C=C(C)C(=O)C3(OC(C)=O)CC(C)C(OC(=O)c4ccccc4)C3C1OC(C)=O)C2(C)C", "note": "(stereo not shown) [EFL2, Euphorbia factor L2]", "values": [{"measurement": "S40/SIA (fold change)", "setting": "Irak2 mRNA", "result": 0.4814}, {"measurement": "log2(fold change) S40/SIA", "setting": "Irak2 mRNA", "result": -1.055}, {"measurement": "fold-GAPDH, Irak3", "setting": "Irak3 mRNA in ankles of STA mice, relative to GAPDH, one value per animal (samples S401-S405)", "result": "0.01639 and 0.02176 and 0.01462 and 0.00868"}, {"measurement": "S40/SIA (fold change)", "setting": "Irak3 mRNA", "result": 0.4891}, {"measurement": "log2(fold change) S40/SIA", "setting": "Irak3 mRNA", "result": -1.032}, {"measurement": "fold-GAPDH, Irak4", "setting": "Irak4 mRNA in ankles of STA mice, relative to GAPDH, one value per animal (samples S401-S405)", "result": "0.005444 and 0.007871 and 0.004771 and 0.003248"}, {"measurement": "fold-GAPDH, Irf1", "setting": "Irf1 mRNA in ankles of STA mice, relative to GAPDH, one value per animal (samples S401-S405)", "result": "0.006938 and 0.008232"}, {"measurement": "S40/SIA (fold change)", "setting": "Irf1 mRNA", "result": 0.3319}, {"measurement": "log2(fold change) S40/SIA", "setting": "Irf1 mRNA", "result": -1.591}, {"measurement": "fold-GAPDH, Irf3", "setting": "Irf3 mRNA in ankles of STA mice, relative to GAPDH, one value per animal (samples S401-S405)", "result": "0.01116 and 0.01143 and 0.004857"}, {"measurement": "S40/SIA (fold change)", "setting": "Irf3 mRNA", "result": 0.3241}, {"measurement": "log2(fold change) S40/SIA", "setting": "Irf3 mRNA", "result": -1.626}, {"measurement": "fold-GAPDH, Jun", "setting": "Jun mRNA in ankles of STA mice, relative to GAPDH, one value per animal (samples S401-S405)", "result": "0.04078 and 0.0443 and 0.03642 and 0.03036"}, {"measurement": "S40/SIA (fold change)", "setting": "Jun mRNA", "result": 0.3678}, {"measurement": "log2(fold change) S40/SIA", "setting": "Jun mRNA", "result": -1.443}, {"measurement": "fold-GAPDH, Ly86", "setting": "Ly86 mRNA in ankles of STA mice, relative to GAPDH, one value per animal (samples S401-S405)", "result": "0.008619 and 0.01651 and 0.01407 and 0.001011"}, {"measurement": "fold-GAPDH, Ly96", "setting": "Ly96 mRNA in ankles of STA mice, relative to GAPDH, one value per animal (samples S401-S405)", "result": "0.00648 and 0.008818 and 0.008037 and 0.003545"}, {"measurement": "S40/SIA (fold change)", "setting": "Ly96 mRNA", "result": 0.3878}, {"measurement": "log2(fold change) S40/SIA", "setting": "Ly96 mRNA", "result": -1.367}, {"measurement": "fold-GAPDH, Map2k3", "setting": "Map2k3 mRNA in ankles of STA mice, relative to GAPDH, one value per animal (samples S401-S405)", "result": "0.0383 and 0.04062 and 0.04366 and 0.0009844"}, {"measurement": "fold-GAPDH, Map2k4", "setting": "Map2k4 mRNA in ankles of STA mice, relative to GAPDH, one value per animal (samples S401-S405)", "result": "0.006054 and 0.009032 and 0.01171 and 0.005161"}, {"measurement": "S40/SIA (fold change)", "setting": "Map2k4 mRNA", "result": 0.8651}, {"measurement": "log2(fold change) S40/SIA", "setting": "Map2k4 mRNA", "result": -0.209}, {"measurement": "fold-GAPDH, Map3k1", "setting": "Map3k1 mRNA in ankles of STA mice, relative to GAPDH, one value per animal (samples S401-S405)", "result": "0.006062 and 0.005781 and 0.1236"}, {"measurement": "fold-GAPDH, Map3k7", "setting": "Map3k7 mRNA in ankles of STA mice, relative to GAPDH, one value per animal (samples S401-S405)", "result": "0.01592 and 0.021 and 0.01646 and 0.01133"}, {"measurement": "fold-GAPDH, Mapk8ip3", "setting": "Mapk8ip3 mRNA in ankles of STA mice, relative to GAPDH, one value per animal (samples S401-S405)", "result": "0.001064 and 0.001038"}, {"measurement": "fold-GAPDH, Mapk8", "setting": "Mapk8 mRNA in ankles of STA mice, relative to GAPDH, one value per animal (samples S401-S405)", "result": "0.01945 and 0.02479 and 0.0101"}, {"measurement": "fold-GAPDH, Mapk9", "setting": "Mapk9 mRNA in ankles of STA mice, relative to GAPDH, one value per animal (samples S401-S405)", "result": "0.001275 and 0.001267 and 0.00173 and 0.000754"}, {"measurement": "fold-GAPDH, Muc13", "setting": "Muc13 mRNA in ankles of STA mice, relative to GAPDH, one value per animal (samples S401-S405)", "result": "6.559e-5 and 0.0002674 and 0.000223 and 0.0001076"}, {"measurement": "fold-GAPDH, Myd88", "setting": "Myd88 mRNA in ankles of STA mice, relative to GAPDH, one value per animal (samples S401-S405)", "result": "0.009066 and 0.0089 and 0.006533 and 0.004478"}, {"measurement": "S40/SIA (fold change)", "setting": "Myd88 mRNA", "result": 0.1447}, {"measurement": "log2(fold change) S40/SIA", "setting": "Myd88 mRNA", "result": -2.789}, {"measurement": "fold-GAPDH, Nfkb1", "setting": "Nfkb1 mRNA in ankles of STA mice, relative to GAPDH, one value per animal (samples S401-S405)", "result": "0.02137 and 0.03037 and 0.044 and 0.01259"}, {"measurement": "fold-GAPDH, Nfkb2", "setting": "Nfkb2 mRNA in ankles of STA mice, relative to GAPDH, one value per animal (samples S401-S405)", "result": "0.005983 and 0.008129 and 0.004372 and 0.004079"}, {"measurement": "S40/SIA (fold change)", "setting": "Nfkb2 mRNA", "result": 0.2395}, {"measurement": "log2(fold change) S40/SIA", "setting": "Nfkb2 mRNA", "result": -2.062}, {"measurement": "fold-GAPDH, Nfkbia", "setting": "Nfkbia mRNA in ankles of STA mice, relative to GAPDH, one value per animal (samples S401-S405)", "result": "0.03064 and 0.03111 and 0.02056 and 0.01675"}, {"measurement": "S40/SIA (fold change)", "setting": "Nfkbia mRNA", "result": 0.2445}, {"measurement": "log2(fold change) S40/SIA", "setting": "Nfkbia mRNA", "result": -2.032}, {"measurement": "fold-GAPDH, Nfkbib", "setting": "Nfkbib mRNA in ankles of STA mice, relative to GAPDH, one value per animal (samples S401-S405)", "result": "0.00388 and 0.005737 and 0.004539 and 0.002397"}, {"measurement": "S40/SIA (fold change)", "setting": "Nfkbib mRNA", "result": 0.4073}, {"measurement": "log2(fold change) S40/SIA", "setting": "Nfkbib mRNA", "result": -1.2959}, {"measurement": "fold-GAPDH, Nfrkb", "setting": "Nfrkb mRNA in ankles of STA mice, relative to GAPDH, one value per animal (samples S401-S405)", "result": "0.003341 and 0.001769 and 0.003291"}, {"measurement": "fold-GAPDH, Nr2c2", "setting": "Nr2c2 mRNA in ankles of STA mice, relative to GAPDH, one value per animal (samples S401-S405)", "result": "0.008167 and 0.009954 and 0.006912 and 0.004742"}, {"measurement": "S40/SIA (fold change)", "setting": "Nr2c2 mRNA", "result": 0.5521}, {"measurement": "log2(fold change) S40/SIA", "setting": "Nr2c2 mRNA", "result": -0.8571}, {"measurement": "fold-GAPDH, Peli1", "setting": "Peli1 mRNA in ankles of STA mice, relative to GAPDH, one value per animal (samples S401-S405)", "result": "0.01623 and 0.02035 and 0.01296 and 0.0006428"}, {"measurement": "S40/SIA (fold change)", "setting": "Peli1 mRNA", "result": 0.462}, {"measurement": "log2(fold change) S40/SIA", "setting": "Peli1 mRNA", "result": -1.114}, {"measurement": "fold-GAPDH, Pglyrp1", "setting": "Pglyrp1 mRNA in ankles of STA mice, relative to GAPDH, one value per animal (samples S401-S405)", "result": "0.001422 and 0.0004159 and 0.002383"}, {"measurement": "S40/SIA (fold change)", "setting": "Pglyrp1 mRNA", "result": 0.2161}, {"measurement": "log2(fold change) S40/SIA", "setting": "Pglyrp1 mRNA", "result": -2.21}, {"measurement": "fold-GAPDH, Ppara", "setting": "Ppara mRNA in ankles of STA mice, relative to GAPDH, one value per animal (samples S401-S405)", "result": "0.001398 and 0.003006 and 0.002272 and 0.0004292"}, {"measurement": "fold-GAPDH, Ptgs2", "setting": "Ptgs2 mRNA in ankles of STA mice, relative to GAPDH, one value per animal (samples S401-S405)", "result": "0.001434 and 0.000397 and 0.0002674 and 0.0003018"}, {"measurement": "S40/SIA (fold change)", "setting": "Ptgs2 mRNA", "result": 0.03786}, {"measurement": "log2(fold change) S40/SIA", "setting": "Ptgs2 mRNA", "result": -4.723}, {"measurement": "S40/SIA (fold change)", "setting": "Rel mRNA", "result": 0.2762}, {"measurement": "log2(fold change) S40/SIA", "setting": "Rel mRNA", "result": -1.8562}, {"measurement": "S40/SIA (fold change)", "setting": "Ticam1 mRNA", "result": 0.59}, {"measurement": "log2(fold change) S40/SIA", "setting": "Ticam1 mRNA", "result": -0.7611}, {"measurement": "S40/SIA (fold change)", "setting": "Tlr2 mRNA", "result": 0.1682}, {"measurement": "log2(fold change) S40/SIA", "setting": "Tlr2 mRNA", "result": -2.571}, {"measurement": "S40/SIA (fold change)", "setting": "Tlr3 mRNA", "result": 0.7859}, {"measurement": "log2(fold change) S40/SIA", "setting": "Tlr3 mRNA", "result": -0.3477}, {"measurement": "S40/SIA (fold change)", "setting": "Tlr4 mRNA", "result": 0.5705}, {"measurement": "log2(fold change) S40/SIA", "setting": "Tlr4 mRNA", "result": -0.8096}, {"measurement": "S40/SIA (fold change)", "setting": "Tlr5 mRNA", "result": 0.188}, {"measurement": "log2(fold change) S40/SIA", "setting": "Tlr5 mRNA", "result": -2.411}, {"measurement": "S40/SIA (fold change)", "setting": "Tlr7 mRNA", "result": 0.09461}, {"measurement": "log2(fold change) S40/SIA", "setting": "Tlr7 mRNA", "result": -3.402}]}
